System: LPS stimulated human PBMCs
Experiment: LPS stimulated human PBMC, IL-1β and IL-6 ELISA
Format: cell-based
Conditions: for inhibition of IL-1β and IL-6 production: Experiment 1: free payload 1000-1 nM, 1 ng/ml LPS
Description: The potency of novel steroids was assessed in a model of LPS stimulated human peripheral blood mononuclear cells (PBMCS). Stimulated PBMCs in this assay produce multiple pro-inflammatory cytokines1.
In all the following experiments, human PBMC, isolated from 1-2 healthy donors per study, were stimulated with LPS to induce cytokine production.
LPS was added either immediately after addition of free payload, or in the case of conjugates, four hours after addition of the conjugate.
Cells were plated in flat bottom 96 well plates at a final concentration of 150,000 cells/well, with technical duplicates for each condition.
Test agents were serially diluted in the assay media and added to a final concentration of 1,000 nM-1 nM or 0.2 nM depending on the assay or as a no treatment control.
LPS stimulation was added to a final concentration of 1 ng/ml.
Human IL-1β and IL-6 ELISA kits were used on supernatants according to vendor protocols. All graphs were prepared with GraphPad (Prism).

| SMILES | inhibition of IL-1β and IL-6 production (24 hr, n=1 donor) | potency of conjugated linker payloads over INX J (conclusions) | further results |
| --- | --- | --- | --- |
| C[C@]12C=CC(=O)C=C1[C@@H](F)C[C@H]1[C@@H]3C[C@H]4O[C@H](c5ccc(CC67CC(N)(C6)C7)cc5)O[C@@]4(C(=O)CO)[C@@]3(C)C[C@H](O)[C@@]12F [INX-SM-74, (2S,6aS,6bR,7S,8aS,8bS,10S,11aR,12aS,12bS)-10-(4-((3-aminobicyclo[1.1.1]pentan-1-yl)methyl)phenyl)-2,6b-difluoro-7-hydroxy-8b-(2-hydroxyacetyl)-6a,8a-dimethyl-1,2,6a,6b,7,8,8a,8b,11a,12,12a,12b-dodecahydro-4H-naphtho[2′,1′:4,5]indeno[1,2-d][1,3]dioxol-4-one] |  |  | potency of free payloads (conclusions): moderate potency albeit much weaker than the R stereoisomer with the same halogenation |
| C[C@]12C=CC(=O)C=C1CC[C@@H]1[C@@H]2[C@@H](O)C[C@@]2(C)[C@H]1C[C@H]1O[C@H](C34CC(Cc5cccc(N)c5)(C3)C4)O[C@]12C(=O)CO [INX-SM-54, (6aR,6bS,7S,8aS,8bS,10S,11aR,12aS,12bS)-10-(3-(3-aminobenzyl)bicyclo[1.1.1]pentan-1-yl)-7-hydroxy-8b-(2-hydroxyacetyl)-6a,8a-dimethyl-1,2,6a,6b,7,8,8a,8b,11a,12,12a,12b-dodecahydro-4H-naphtho[2′,1′:4,5]indeno[1,2-d][1,3]dioxol-4-one] | did not show inhibition |  |  |
| C[C@]12C=CC(=O)C=C1CC[C@@H]1[C@@H]2[C@@H](O)C[C@@]2(C)[C@H]1C[C@H]1O[C@@H](c3ccc(CC4CC5(C4)CC(NC(=O)[C@H](CCC(=O)O)NC(=O)CNC(=O)CBr)C5)cc3)O[C@]12C(=O)COP(=O)(O)O (stereo partly drawn) [INX A7, (S)-4-(2-(2-bromoacetamido)acetamido)-5-((6-(4-((6aR,6bS,7S,8aS,8bS,10R,11aR,12aS,12bS)-7-hydroxy-6a,8a-dimethyl-4-oxo-8b-(2-(phosphonooxy)acetyl)-2,4,6a,6b,7,8,8a,8b,11a,12,12a,12b-dodecahydro-1H-naphtho[2′,1′:4,5]indeno[1,2-d][1,3]dioxol-10-yl)benzyl)spiro[3.3]heptan-2-yl)amino)-5-oxopentanoic acid] |  | enhanced potency |  |
| C[C@]12C=CC(=O)C=C1CC[C@@H]1[C@@H]2[C@@H](O)C[C@@]2(C)[C@H]1C[C@H]1O[C@@H](c3ccc(CC4CC45CCC(NC(=O)[C@H](CCC(=O)O)NC(=O)CNC(=O)CBr)CC5)cc3)O[C@]12C(=O)CO (stereo partly drawn) [INX A9, (4S)-4-(2-(2-bromoacetamido)acetamido)-5-((1-(4-((6aR,6bS,7S,8aS,8bS,10R,11aR,12aS,12bS)-7-hydroxy-8b-(2-hydroxyacetyl)-6a,8a-dimethyl-4-oxo-2,4,6a,6b,7,8,8a,8b,11a,12,12a,12b-dodecahydro-1H-naphtho[2′,1′:4,5]indeno[1,2-d][1,3]dioxol-10-yl)benzyl)spiro[2.5]octan-6-yl)amino)-5-oxopentanoic acid] |  | enhanced potency |  |
| C[C@]12C=CC(=O)C=C1CC[C@@H]1[C@@H]2[C@@H](O)C[C@@]2(C)[C@H]1C[C@H]1O[C@H](c3ccc(CC45CC(N)(C4)C5)cc3)O[C@]12C(=O)CO [INX-SM-53, (6aR,6bS,7S,8aS,8bS,10S,11aR,12aS,12bS)-10-(4-((3-aminobicyclo[1.1.1]pentan-1-yl)methyl)phenyl)-7-hydroxy-8b-(2-hydroxyacetyl)-6a,8a-dimethyl-1,2,6a,6b,7,8,8a,8b, 11a,12,12a,12b-dodecahydro-4H-naphtho[2′,1′:4,5]indeno[1,2-d][1,3]dioxol-4-one] | did not show inhibition |  |  |
| C[C@]12C=CC(=O)C=C1CC[C@@H]1[C@@H]2[C@@H](O)C[C@@]2(C)[C@H]1C[C@H]1O[C@H](c3cnc(Cc4cccc(N)c4)s3)O[C@]12C(=O)CO [INX-SM-56, (6aR,6bS,7S,8aS,8bS,10S,11aR,12aS,12bS)-10-(2-(3-aminobenzyl)thiazol-5-yl)-7-hydroxy-8b-(2-hydroxyacetyl)-6a,8a-dimethyl-1,2,6a,6b,7,8,8a,8b, 11a,12,12a,12b-dodecahydro-4H-naphtho[2′,1′:4,5]indeno[1,2-d][1,3]dioxol-4-one] |  |  | inhibition of IL-1β production (Experiment 2: free payload 1000-1 nM, 24 hr, n=1 donor): did not show inhibition |

From patent US20250108119A1, “NOVEL STEROID PAYLOADS, STEROID LINKERS, ADCs CONTAINING AND USE THEREOF” (IMMUNEXT, INC., priority 2021, published 2025)
